According to DBAASP:
Values after ≈ are worked out from the molar mass of the structure shown. Blank lines part the entries; values can stand above or below the molecule they belong to.

Tests used:
Assay in all cases: ≥ marks a high value that may be exact or a test limit, other limits are often not marked, values filed in µg/mL are converted to µM
[1] = system: Pseudomonas aeruginosa PAO1
[2] = system: Pseudomonas aeruginosa 919
[3] = system: Pseudomonas aeruginosa 910
[4] = system: Pseudomonas aeruginosa 253
[5] = system: Enterococcus faecalis NCTC 12697
[6] = system: Staphylococcus aureus NCTC 10788
[7] = system: Candida albicans NCTC 1467
[8] = system: Klebsiella pneumoniae ATCC 43816
[9] = system: Staphylococcus aureus NCTC 12493
[10] = system: Escherichia coli NCTC 10418
[11] = system: Pseudomonas aeruginosa ATCC 27853
Escherichia coli = system: Escherichia coli
[12] = system: Candida parapsilosis ATCC 22019
[13] = system: Trichophyton rubrum ATCC 28189
Staphylococcus aureus = system: Staphylococcus aureus
[14] = system: Candida albicans ATCC 24433
[15] = system: Pseudomonas aeruginosa PA14
[16] = system: Candida albicans ATCC 10231
[17] = system: Staphylococcus aureus ATCC 29231
[18] = system: Enterococcus faecium E007
[19] = system: Pseudomonas aeruginosa H103
[20] = system: Staphylococcus aureus ATCC 25923
Candida albicans = system: Candida albicans
[21] = system: Salmonella enterica serovar Typhimurium
[22] = system: Staphylococcus epidermidis
Escherichia coli UB1005 = system: Escherichia coli UB1005
[23] = system: Acinetobacter baumannii ATCC 7978
Escherichia coli MG1655 = system: Escherichia coli MG1655
[24] = system: Pseudomonas aeruginosa ATCC 10145
[25] = system: Klebsiella pneumoniae ATCC 700603

MIC [1]: 2 µM (≈ 3.81 µg/mL)
MIC [2]: 16 µM (≈ 30.5 µg/mL)
MIC [3]: 4 µM (≈ 7.62 µg/mL)
MIC [4]: 4 µM (≈ 7.62 µg/mL)
SMILES: CC[C@H](C)[C@H](N)C(=O)N[C@@H](CC(C)C)C(=O)N[C@@H](CCCCN)C(=O)N[C@@H](Cc1c[nH]c2ccccc12)C(=O)N[C@@H](CCCCN)C(=O)N[C@H](C(=O)N[C@@H](CCCCN)C(=O)N[C@@H](Cc1c[nH]c2ccccc12)C(=O)N[C@@H](Cc1c[nH]c2ccccc12)C(=O)N[C@@H](CCCCN)C(=O)N[C@@H](Cc1c[nH]c2ccccc12)C(=O)N[C@@H](Cc1ccccc1)C(=O)N[C@@H](CCCN=C(N)N)C(N)=O)[C@@H](C)O [ILKWKTKWWKWFR]

MIC [5]: ≥ 32 µM
MIC [6]: 8 µM (≈ 21.8 µg/mL)
MIC [7]: ≥ 64 µM
MIC [8]: ≥ 32 µM
MIC [9]: 16 µM (≈ 43.6 µg/mL)
MIC [10]: 8 µM (≈ 21.8 µg/mL)
MIC [11]: 32 µM (≈ 87.2 µg/mL)
SMILES: CSCC[C@H](NC(=O)[C@H](CCC(=O)O)NC(=O)[C@H](CCCCN)NC(=O)[C@H](CC(C)C)NC(=O)[C@H](CCCCN)NC(=O)CNC(=O)[C@H](Cc1c[nH]c2ccccc12)NC(=O)[C@H](CC(C)C)NC(=O)[C@@H](N)CO)C(=O)N[C@@H](CC(C)C)C(=O)N[C@@H](C)C(=O)N[C@@H](C)C(=O)N[C@@H](C)C(=O)NCC(=O)N[C@@H](CCCCN)C(=O)N[C@@H](C)C(=O)N[C@H](C(=O)N[C@@H](C)C(=O)N[C@@H](CC(N)=O)C(=O)N[C@@H](C)C(=O)N[C@H](C(=O)N[C@@H](CC(N)=O)C(=O)NCC(=O)N[C@@H](CC(C)C)C(=O)N[C@@H](C)C(=O)N[C@@H](CC(N)=O)C(=O)N[C@@H](CCC(N)=O)C(N)=O)C(C)C)C(C)C [SLWGKLKEMLAAAGKAVANAVNGLANQ]

MIC [1]: 4 µM (≈ 7.63 µg/mL)
MIC [2]: ≥ 32 µM
MIC [3]: 8 µM (≈ 15.3 µg/mL)
MIC [4]: 16 µM (≈ 30.5 µg/mL)
SMILES: CC[C@H](C)[C@H](NC(=O)[C@@H](N)Cc1ccccc1)C(=O)N[C@@H](CCCCN)C(=O)N[C@@H](Cc1c[nH]c2ccccc12)C(=O)N[C@@H](CCCN=C(N)N)C(=O)N[C@@H](Cc1ccccc1)C(=O)N[C@@H](CCCN=C(N)N)C(=O)N[C@@H](CCCN=C(N)N)C(=O)N[C@@H](Cc1c[nH]c2ccccc12)C(=O)N[C@@H](CCCCN)C(=O)N[C@@H](CCCCN)C(=O)N[C@@H](CCCN=C(N)N)C(=O)N[C@H](C(N)=O)[C@@H](C)O [FIKWRFRRWKKRT]

MIC (Escherichia coli): > 280 µM
MIC [12]: ≥ 280 µM
MIC [13]: ≥ 280 µM
MIC (Staphylococcus aureus): > 280 µM
MIC [14]: ≥ 280 µM
SMILES: CC[C@H](C)[C@H](NC(=O)[C@H](CC(C)C)NC(=O)[C@H](C)NC(=O)[C@H](CO)NC(=O)[C@H](CCCN=C(N)N)NC(=O)[C@@H](N)CO)C(=O)N[C@H](C(=O)N[C@@H](Cc1cnc[nH]1)C(=O)N[C@@H](CCC(N)=O)C(=O)N[C@@H](CCCN=C(N)N)C(=O)N[C@@H](CC(C)C)C(=O)N[C@@H](Cc1ccccc1)C(N)=O)C(C)C [SRSALIVHQRLF]

MIC [15]: 26.8 µM (≈ 64 µg/mL)
MIC [16]: 53.7 µM (≈ 128 µg/mL)
MIC [17]: 13.1 µM (≈ 31.3 µg/mL)
MIC [18]: ≥ 53.7 µM
SMILES: CC[C@H](C)[C@H](NC(=O)[C@H](CCCCN)NC(=O)[C@H](CCCCN)NC(=O)[C@H](Cc1c[nH]c2ccccc12)NC(=O)[C@@H](NC(=O)[C@H](CCCCN)NC(=O)[C@H](Cc1c[nH]c2ccccc12)NC(=O)[C@@H](N)CC(C)C)[C@@H](C)CC)C(=O)N[C@@H](Cc1c[nH]c2ccccc12)C(=O)N[C@@H](CCCN=C(N)N)C(=O)N[C@H](C(=O)N[C@@H](Cc1c[nH]c2ccccc12)C(=O)N[C@@H](Cc1c[nH]c2ccccc12)C(=O)N[C@@H](CC(N)=O)C(=O)N[C@@H](Cc1c[nH]c2ccccc12)C(=O)N[C@@H](CCCN=C(N)N)C(=O)O)C(C)C [LWKIWKKIWRVWWNWR]

MIC (Escherichia coli): > 315 µM
MIC [12]: ≥ 315 µM
MIC [13]: ≥ 315 µM
MIC (Staphylococcus aureus): > 315 µM
MIC [14]: ≥ 315 µM
SMILES: CC[C@H](C)[C@H](NC(=O)[C@H](CC(C)C)NC(=O)[C@H](CO)NC(=O)[C@@H](N)CCCN=C(N)N)C(=O)N[C@H](C(=O)N[C@@H](Cc1cnc[nH]1)C(=O)N[C@@H](CCC(N)=O)C(=O)N[C@@H](CCCN=C(N)N)C(=O)N[C@@H](CC(C)C)C(=O)N[C@@H](Cc1ccccc1)C(N)=O)C(C)C [RSLIVHQRLF]

MIC [19]: 4.01 µM (≈ 6 µg/mL)
MIC [1]: 8 µM (≈ 12 µg/mL)
MIC [20]: 8.03 µM (≈ 12 µg/mL)
MIC (Candida albicans): 8.03 µM (≈ 12 µg/mL)
MIC [21]: 4.01 µM (≈ 6 µg/mL)
MIC [2]: 8 µM (≈ 12 µg/mL)
MIC [3]: 16 µM (≈ 23.9 µg/mL)
MIC [22]: 1.07 µM (≈ 1.6 µg/mL)
MIC [4]: 16 µM (≈ 23.9 µg/mL)
MIC (Escherichia coli UB1005): 1.07 µM (≈ 1.6 µg/mL)
SMILES: CC[C@H](C)[C@H](NC(=O)[C@H](CCCN=C(N)N)NC(=O)[C@H](Cc1c[nH]c2ccccc12)NC(=O)[C@H](CCCN=C(N)N)NC(=O)[C@@H](N)C(C)C)C(=O)N[C@@H](CCCN=C(N)N)C(=O)N[C@H](C(=O)N[C@@H](C)C(=O)N[C@H](C(=O)N[C@H](C(=O)N[C@@H](CCCN=C(N)N)C(=O)N[C@@H](C)C(=O)O)[C@@H](C)CC)C(C)C)C(C)C [VRWRIRVAVIRA]

SMILES: CC[C@H](C)[C@H](NC(=O)[C@H](CCCCN)NC(=O)[C@H](CCCCN)NC(=O)[C@@H](N)CC(C)C)C(=O)NCC(=O)N[C@@H](CCCCN)C(=O)N[C@@H](CCCCN)C(=O)N[C@H](C(=O)N[C@@H](Cc1c[nH]c2ccccc12)C(=O)N[C@@H](CCCN=C(N)N)C(=O)N[C@H](C(=O)NCC(=O)O)C(C)C)[C@@H](C)CC [LKKIGKKIWRVG]
MIC [15]: ≥ 89.8 µM
MIC [17]: ≥ 89.8 µM
MIC [18]: ≥ 89.8 µM
MIC [23]: ≥ 89.8 µM

MIC (Escherichia coli MG1655): 15 µM (≈ 20.9 µg/mL)
MIC [20]: > 15 µM
MIC [24]: 15 µM (≈ 20.9 µg/mL)
MIC [25]: > 15 µM
SMILES: CC(C)C[C@H](NC(=O)[C@H](Cc1c[nH]c2ccccc12)NC(=O)[C@H](Cc1cnc[nH]1)NC(=O)[C@H](CCCCN)NC(=O)[C@H](CC(C)C)NC(=O)[C@H](C)NC(=O)[C@H](CC(C)C)NC(=O)[C@H](CCCCN)NC(=O)CNC(=O)[C@@H](NC(=O)[C@@H](NC(=O)[C@@H](N)CCCCN)[C@@H](C)O)C(C)C)C(=O)O [KTVGKLALKHWL]

MIC [6]: ≥ 128 µM
MIC [7]: ≥ 128 µM
MIC [8]: ≥ 128 µM
MIC [9]: ≥ 128 µM
MIC [10]: ≥ 64 µM
MIC [11]: > 128 µM
SMILES: CC[C@H](C)[C@@H]1NC(=O)[C@H](CC(C)C)NC(=O)[C@@H](NC(=O)[C@@H](NC(=O)[C@@H](NC(=O)[C@H](C)NC(=O)CNC(=O)[C@H](CC(C)C)NC(=O)[C@H](C)NC(=O)[C@@H](N)Cc2ccccc2)C(C)C)[C@@H](C)O)CSSC[C@@H](C(=O)N[C@@H](CCCCN)C(=O)N[C@H](C(=O)N[C@@H](CC(C)C)C(=O)N2CCC[C@H]2C(=O)N[C@@H](CCCCN)C(=O)N[C@@H](CC(C)C)C(=O)N[C@@H](Cc2ccccc2)C(=O)O)C(C)C)NC(=O)[C@H](CCCCN)NC(=O)[C@H]([C@@H](C)O)NC(=O)[C@H](CCCN=C(N)N)NC1=O [FALGAVTCLIRTKCKVLPKLF]
